Data: ChEMBL document CHEMBL5465560, “Selectivity Literature for EUbOPEN Chemogenomic Library” (2024)
One block for each molecule: values may come before it.

Tests used:
[1] = target: T1, Phosphatidylinositol 4,5-bisphosphate 3-kinase catalytic subunit delta isoform (Homo sapiens) (UniProt O00329); assay: Selectivity interaction (Adapta Assay) EUB0001632a PIK3CD; conditions: at 10 µM
T1 sequence (whole entry): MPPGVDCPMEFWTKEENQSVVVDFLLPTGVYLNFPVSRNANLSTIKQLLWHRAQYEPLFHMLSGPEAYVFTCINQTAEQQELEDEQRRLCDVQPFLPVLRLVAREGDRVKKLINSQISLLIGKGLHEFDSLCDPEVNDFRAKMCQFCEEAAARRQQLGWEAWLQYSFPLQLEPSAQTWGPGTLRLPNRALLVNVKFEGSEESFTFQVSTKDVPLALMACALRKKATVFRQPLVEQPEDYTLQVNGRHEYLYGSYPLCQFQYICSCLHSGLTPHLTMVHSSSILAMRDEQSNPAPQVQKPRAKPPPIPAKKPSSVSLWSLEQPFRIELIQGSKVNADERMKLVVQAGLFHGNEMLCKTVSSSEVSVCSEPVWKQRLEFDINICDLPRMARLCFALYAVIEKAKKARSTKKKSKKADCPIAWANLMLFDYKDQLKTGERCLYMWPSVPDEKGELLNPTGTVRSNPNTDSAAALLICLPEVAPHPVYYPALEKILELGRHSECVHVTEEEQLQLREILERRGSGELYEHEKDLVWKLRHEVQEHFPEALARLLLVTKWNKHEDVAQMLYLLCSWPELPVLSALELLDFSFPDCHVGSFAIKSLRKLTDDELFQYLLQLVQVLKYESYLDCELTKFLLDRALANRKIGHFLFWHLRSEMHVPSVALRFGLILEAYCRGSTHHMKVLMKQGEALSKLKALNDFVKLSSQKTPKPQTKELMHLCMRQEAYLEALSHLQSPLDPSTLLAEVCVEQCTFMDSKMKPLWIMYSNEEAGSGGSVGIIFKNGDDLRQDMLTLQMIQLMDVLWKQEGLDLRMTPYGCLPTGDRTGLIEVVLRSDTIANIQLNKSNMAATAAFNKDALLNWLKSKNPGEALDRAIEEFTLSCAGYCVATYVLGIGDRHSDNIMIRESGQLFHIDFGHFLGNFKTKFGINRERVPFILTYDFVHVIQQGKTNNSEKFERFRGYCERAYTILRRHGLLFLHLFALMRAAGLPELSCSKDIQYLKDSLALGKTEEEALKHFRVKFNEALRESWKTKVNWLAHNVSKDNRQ

[2] = target: Sodium- and chloride-dependent GABA transporter 1 (Homo sapiens) (UniProt P30531); assay: Selectivity interaction (Eurofins CEREP Diversity Profile (receptors and ion channels)) EUB0000279b SLC6A1; conditions: at 10 µM
[3] = target: Myosin light chain kinase, smooth muscle (Homo sapiens, UniProt Q15746); assay: Selectivity interaction (Kinase panel (Invitrogen)) EUB0000639a MYLK; conditions: at 200 nM
[4] = target: High affinity nerve growth factor receptor (Homo sapiens, UniProt P04629)
[5] = target: T2, Cyclin-dependent kinase-like 2 (Homo sapiens) (UniProt Q92772); assay: Selectivity interaction (KinomeScan (DiscoverX)) EUB0000618a CDKL2; conditions: at 10 µM
T2 sequence (whole entry): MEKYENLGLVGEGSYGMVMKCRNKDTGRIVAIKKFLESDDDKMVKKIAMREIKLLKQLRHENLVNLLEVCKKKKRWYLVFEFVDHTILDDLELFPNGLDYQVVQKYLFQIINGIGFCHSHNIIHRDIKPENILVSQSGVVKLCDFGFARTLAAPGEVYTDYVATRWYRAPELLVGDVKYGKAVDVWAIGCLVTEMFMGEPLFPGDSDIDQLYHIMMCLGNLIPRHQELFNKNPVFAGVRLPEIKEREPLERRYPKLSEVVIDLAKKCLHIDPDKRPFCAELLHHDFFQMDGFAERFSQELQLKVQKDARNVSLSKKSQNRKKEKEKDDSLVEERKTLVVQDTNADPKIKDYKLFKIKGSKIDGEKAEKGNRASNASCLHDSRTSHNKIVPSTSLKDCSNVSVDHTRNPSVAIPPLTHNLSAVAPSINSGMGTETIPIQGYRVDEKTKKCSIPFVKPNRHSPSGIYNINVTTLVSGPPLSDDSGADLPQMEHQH

[6] = target: Serine/threonine-protein kinase SIK1 (Homo sapiens) (UniProt P57059); assay: Selectivity interaction (KinomeScan (DiscoverX)) EUB0000618a SIK1; conditions: at 10 µM
[7] = target: Eukaryotic translation initiation factor 2-alpha kinase 1 (Homo sapiens) (UniProt Q9BQI3); assay: Selectivity interaction (KinomeScan (DiscoverX)) EUB0001619a EIF2AK1; conditions: at 1 µM
[8] = target: T3, Kinase suppressor of Ras 1 (Homo sapiens) (UniProt Q8IVT5); assay: Selectivity interaction (ActivX KiNativ screen (ex vivo kinase selectivity in human PBMCs)) EUB0001619a KSR1; assay type: cell-based; conditions: PBMC, at 1 µM
T3 sequence (whole entry): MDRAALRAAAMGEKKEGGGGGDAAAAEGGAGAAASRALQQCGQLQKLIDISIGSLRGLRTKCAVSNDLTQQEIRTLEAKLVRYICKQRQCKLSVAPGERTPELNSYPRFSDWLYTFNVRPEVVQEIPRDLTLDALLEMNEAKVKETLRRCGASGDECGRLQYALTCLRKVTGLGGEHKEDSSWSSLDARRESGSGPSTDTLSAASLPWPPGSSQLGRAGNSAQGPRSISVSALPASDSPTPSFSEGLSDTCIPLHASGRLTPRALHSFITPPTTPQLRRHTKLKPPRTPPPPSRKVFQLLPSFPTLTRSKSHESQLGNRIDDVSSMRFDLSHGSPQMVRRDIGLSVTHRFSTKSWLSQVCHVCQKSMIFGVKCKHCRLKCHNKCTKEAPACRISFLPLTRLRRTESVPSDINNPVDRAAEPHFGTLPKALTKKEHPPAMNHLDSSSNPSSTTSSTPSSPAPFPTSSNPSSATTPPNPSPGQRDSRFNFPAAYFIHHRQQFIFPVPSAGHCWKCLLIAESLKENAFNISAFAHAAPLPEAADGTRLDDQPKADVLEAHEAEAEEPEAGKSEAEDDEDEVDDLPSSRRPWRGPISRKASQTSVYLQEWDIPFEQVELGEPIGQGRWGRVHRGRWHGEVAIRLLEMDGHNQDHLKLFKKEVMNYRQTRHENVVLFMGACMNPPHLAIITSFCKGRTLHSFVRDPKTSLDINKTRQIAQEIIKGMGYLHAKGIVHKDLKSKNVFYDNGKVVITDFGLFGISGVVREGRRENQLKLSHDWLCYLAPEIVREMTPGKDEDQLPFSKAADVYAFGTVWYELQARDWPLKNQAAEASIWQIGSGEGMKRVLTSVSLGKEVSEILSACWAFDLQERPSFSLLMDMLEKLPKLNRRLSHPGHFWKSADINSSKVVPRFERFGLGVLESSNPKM

[9] = target: Phosphatidylinositol 4,5-bisphosphate 3-kinase catalytic subunit beta isoform (Homo sapiens) (UniProt P42338); assay: Selectivity interaction (ActivX KiNativ screen (ex vivo kinase selectivity in human PBMCs)) EUB0001619a PIK3CB; assay type: cell-based; conditions: PBMC, at 1 µM
Sequence of Phosphatidylinositol 4,5-bisphosphate 3-kinase catalytic subunit beta isoform (Homo sapiens) (P42338 whole entry, looked up, canonical isoform): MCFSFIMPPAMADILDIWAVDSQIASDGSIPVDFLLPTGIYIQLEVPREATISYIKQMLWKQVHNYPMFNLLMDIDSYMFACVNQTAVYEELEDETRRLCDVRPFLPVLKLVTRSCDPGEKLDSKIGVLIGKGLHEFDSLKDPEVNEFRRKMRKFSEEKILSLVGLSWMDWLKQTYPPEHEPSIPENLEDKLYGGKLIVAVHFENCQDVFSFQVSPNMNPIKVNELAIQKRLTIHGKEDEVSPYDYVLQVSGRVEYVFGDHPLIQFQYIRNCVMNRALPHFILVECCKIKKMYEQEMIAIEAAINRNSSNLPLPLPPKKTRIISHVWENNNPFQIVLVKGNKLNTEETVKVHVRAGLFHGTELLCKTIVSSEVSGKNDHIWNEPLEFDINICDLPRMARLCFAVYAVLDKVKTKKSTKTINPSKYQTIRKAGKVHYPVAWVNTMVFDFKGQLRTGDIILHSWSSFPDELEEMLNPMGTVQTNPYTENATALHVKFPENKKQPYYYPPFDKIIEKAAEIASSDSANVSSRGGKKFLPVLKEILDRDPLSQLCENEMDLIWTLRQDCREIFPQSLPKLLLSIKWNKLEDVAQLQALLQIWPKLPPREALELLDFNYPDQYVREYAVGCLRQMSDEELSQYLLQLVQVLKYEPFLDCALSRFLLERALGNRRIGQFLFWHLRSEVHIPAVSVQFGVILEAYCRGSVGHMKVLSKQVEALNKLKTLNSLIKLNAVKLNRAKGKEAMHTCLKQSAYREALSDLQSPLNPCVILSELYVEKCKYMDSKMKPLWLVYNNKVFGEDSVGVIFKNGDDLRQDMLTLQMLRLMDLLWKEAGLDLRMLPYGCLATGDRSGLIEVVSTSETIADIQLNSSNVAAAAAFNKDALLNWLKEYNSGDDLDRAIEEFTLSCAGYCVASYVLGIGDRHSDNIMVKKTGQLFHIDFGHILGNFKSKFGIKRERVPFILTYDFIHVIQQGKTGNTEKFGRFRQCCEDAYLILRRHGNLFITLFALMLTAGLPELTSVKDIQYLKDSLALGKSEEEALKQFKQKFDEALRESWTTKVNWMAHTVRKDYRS

Sequence of Eukaryotic translation initiation factor 2-alpha kinase 1 (Homo sapiens) (Q9BQI3 whole entry): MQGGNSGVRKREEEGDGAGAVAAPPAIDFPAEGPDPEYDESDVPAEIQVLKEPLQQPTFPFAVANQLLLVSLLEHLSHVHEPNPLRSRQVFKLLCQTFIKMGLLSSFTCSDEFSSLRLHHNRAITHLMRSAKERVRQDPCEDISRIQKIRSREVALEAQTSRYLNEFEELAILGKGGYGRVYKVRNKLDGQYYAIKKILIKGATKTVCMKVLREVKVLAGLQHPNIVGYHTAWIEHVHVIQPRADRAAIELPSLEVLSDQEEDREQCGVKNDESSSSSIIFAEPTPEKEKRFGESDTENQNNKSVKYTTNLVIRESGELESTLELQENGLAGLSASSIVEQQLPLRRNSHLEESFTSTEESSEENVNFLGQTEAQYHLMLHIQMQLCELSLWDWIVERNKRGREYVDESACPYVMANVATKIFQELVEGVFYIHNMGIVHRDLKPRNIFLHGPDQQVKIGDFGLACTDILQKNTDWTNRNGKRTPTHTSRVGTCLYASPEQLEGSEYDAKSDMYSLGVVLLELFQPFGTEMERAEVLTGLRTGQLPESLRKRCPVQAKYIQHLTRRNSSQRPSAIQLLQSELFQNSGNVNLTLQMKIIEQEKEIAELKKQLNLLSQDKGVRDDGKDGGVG
Sequence of High affinity nerve growth factor receptor (P04629 whole entry): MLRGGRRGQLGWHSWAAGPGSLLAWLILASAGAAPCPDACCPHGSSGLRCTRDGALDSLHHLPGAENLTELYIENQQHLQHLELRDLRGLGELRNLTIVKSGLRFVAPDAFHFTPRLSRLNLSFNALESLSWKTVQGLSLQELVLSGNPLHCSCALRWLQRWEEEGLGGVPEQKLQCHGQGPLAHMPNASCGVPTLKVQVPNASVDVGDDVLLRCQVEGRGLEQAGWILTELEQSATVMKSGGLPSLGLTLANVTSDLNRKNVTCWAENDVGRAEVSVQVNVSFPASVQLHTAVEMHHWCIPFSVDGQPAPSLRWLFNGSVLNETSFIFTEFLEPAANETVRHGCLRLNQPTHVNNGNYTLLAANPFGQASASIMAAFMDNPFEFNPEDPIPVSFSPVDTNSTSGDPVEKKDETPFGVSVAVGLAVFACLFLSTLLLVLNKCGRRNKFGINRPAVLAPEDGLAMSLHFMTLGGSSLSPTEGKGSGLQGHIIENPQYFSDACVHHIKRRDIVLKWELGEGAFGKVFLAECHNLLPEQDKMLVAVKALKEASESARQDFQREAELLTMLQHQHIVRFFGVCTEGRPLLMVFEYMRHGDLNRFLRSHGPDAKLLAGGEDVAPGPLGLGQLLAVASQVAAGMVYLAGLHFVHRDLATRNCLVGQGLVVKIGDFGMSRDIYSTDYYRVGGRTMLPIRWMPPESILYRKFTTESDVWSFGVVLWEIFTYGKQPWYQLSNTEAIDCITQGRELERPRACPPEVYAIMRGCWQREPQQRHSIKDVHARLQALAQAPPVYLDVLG
Sequence of Myosin light chain kinase, smooth muscle (Q15746 whole entry): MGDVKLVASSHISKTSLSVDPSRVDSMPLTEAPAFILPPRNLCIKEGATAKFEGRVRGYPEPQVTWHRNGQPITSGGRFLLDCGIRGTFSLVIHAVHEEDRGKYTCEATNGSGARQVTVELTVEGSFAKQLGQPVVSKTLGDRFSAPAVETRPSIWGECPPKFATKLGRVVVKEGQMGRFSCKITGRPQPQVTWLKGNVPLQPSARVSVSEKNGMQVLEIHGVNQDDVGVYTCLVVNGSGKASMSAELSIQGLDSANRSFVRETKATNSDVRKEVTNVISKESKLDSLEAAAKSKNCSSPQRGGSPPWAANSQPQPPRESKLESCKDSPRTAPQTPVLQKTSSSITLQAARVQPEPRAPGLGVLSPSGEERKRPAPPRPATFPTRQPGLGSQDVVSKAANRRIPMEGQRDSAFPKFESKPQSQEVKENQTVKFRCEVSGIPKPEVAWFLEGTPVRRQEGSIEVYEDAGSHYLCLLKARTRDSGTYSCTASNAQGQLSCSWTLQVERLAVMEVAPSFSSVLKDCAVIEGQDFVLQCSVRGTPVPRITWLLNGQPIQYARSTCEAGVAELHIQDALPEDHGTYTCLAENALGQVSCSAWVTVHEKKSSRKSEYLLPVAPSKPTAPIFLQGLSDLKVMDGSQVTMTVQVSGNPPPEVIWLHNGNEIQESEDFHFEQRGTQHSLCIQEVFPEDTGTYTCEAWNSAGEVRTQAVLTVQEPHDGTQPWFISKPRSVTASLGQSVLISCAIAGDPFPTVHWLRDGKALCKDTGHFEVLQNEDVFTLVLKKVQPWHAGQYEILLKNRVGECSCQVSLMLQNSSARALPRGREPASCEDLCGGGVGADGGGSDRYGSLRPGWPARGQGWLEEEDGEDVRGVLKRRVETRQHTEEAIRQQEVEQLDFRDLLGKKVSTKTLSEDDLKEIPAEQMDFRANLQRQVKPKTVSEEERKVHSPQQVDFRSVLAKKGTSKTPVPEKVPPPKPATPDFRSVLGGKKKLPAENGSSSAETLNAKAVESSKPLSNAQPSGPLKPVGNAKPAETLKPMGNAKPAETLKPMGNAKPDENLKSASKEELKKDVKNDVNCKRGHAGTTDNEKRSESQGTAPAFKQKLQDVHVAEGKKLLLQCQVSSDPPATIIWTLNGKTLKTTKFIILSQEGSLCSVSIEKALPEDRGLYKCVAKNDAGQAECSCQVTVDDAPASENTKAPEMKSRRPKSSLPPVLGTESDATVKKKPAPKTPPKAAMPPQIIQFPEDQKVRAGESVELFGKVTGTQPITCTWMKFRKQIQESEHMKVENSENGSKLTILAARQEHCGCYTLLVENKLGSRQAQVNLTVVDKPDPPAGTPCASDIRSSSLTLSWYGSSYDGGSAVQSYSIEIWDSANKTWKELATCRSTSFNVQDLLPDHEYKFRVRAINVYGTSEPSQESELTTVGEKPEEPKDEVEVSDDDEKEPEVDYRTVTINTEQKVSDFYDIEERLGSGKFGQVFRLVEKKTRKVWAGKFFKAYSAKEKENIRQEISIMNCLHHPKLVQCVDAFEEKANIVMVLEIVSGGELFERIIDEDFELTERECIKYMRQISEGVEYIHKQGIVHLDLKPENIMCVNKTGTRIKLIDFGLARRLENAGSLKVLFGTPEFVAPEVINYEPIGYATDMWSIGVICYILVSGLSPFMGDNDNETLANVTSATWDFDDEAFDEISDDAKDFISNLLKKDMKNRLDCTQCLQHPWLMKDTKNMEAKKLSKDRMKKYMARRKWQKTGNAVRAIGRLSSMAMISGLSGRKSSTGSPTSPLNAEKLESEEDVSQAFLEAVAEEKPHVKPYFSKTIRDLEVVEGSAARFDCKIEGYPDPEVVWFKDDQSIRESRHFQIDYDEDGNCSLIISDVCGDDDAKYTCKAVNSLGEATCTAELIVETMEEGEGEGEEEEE
Sequence of Sodium- and chloride-dependent GABA transporter 1 (Homo sapiens) (P30531 whole entry, looked up): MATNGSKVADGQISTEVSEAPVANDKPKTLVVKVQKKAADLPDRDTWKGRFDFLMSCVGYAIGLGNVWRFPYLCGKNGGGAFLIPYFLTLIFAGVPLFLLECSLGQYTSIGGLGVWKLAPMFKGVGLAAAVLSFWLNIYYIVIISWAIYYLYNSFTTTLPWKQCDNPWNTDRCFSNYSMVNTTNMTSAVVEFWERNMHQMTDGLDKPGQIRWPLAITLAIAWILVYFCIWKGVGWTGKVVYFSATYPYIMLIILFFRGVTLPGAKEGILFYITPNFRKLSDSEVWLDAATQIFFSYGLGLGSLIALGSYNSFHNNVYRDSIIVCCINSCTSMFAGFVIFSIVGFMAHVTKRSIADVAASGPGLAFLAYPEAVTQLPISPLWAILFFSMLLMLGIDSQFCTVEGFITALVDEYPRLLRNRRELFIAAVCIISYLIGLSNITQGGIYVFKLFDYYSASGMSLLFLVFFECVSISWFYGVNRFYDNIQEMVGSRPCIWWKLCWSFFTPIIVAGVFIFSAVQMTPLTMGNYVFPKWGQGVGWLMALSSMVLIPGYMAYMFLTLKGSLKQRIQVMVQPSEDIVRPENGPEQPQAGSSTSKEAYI

Compound: Cn1cc(-n2cnc3c(NCc4nc5cc(Cl)c(Cl)cc5[nH]4)nc(N4CCOCC4)nc32)cn1
- % of inhibition [1]: 66.6%

Compound: CCc1cccc(CC)c1NC(=O)c1nn(C)c2c1CCc1cnc(Nc3ccc(C(=O)NC4CCN(C)CC4)cc3OC(F)(F)F)nc1-2
- IC50 [4]: > 10 µM

Compound: O[C@H]1CC[C@H](Nc2ncc3nc(Nc4c(F)cc(F)cc4F)n([C@H]4CCOC4)c3n2)CC1
- % of control [5]: 100%
- % of control [6]: 100%

Compound: N#Cc1cccc(-c2c[nH]c3ncnc(N4CCOCC4)c23)c1
- % of control [7]: 100%
- % of inhibition [8]: 12%
- % of inhibition [9]: -3%

Continued, values first:

- % of control [2]: 107%
Compound: CC(=O)c1cc(-c2ccccc2OCC2CC2)c2ncccn12

- % of inhibition [3]: 8.89%
Compound: CC[C@@H]1[C@H](F)C(=O)N[C@@H]1COc1nccc2cc(C(N)=O)c(OC)cc12 [ZIMLOVISERTIB]
